viability, T/C and IC50 data for nine compounds are collected here from PubChem BioAssay AID1918943 (Molecular Pharmacology Branch, DTP, NCI, 2023).

pIC50: −log10 of the molar value. “And” between values parts separate entries of the source, which are not always exact repeats. Equal entries are not always repeated.

The experiment deals with 855422-203-R-J1-PDC complex spheroid viability. Kind of experiment: Anticancer human tumor 855422-203-R-J1-PDC patient-derived bladder carcinoma cell line growth inhibition. As to conditions: for viability, T/C: stronger effect = lower value; for pIC50: curve of compound. An excerpt:
Multicellular complex tumor spheroid response to LSD1 Inhibitor Iadademstat in combination with a variety of drugs and investigational agents in selected tumor cell lines
The current study was undertaken to assess response to LSD1 inhibitors in combination with standard-of-care drugs and investigational agents in solid tumor complex spheroid models as well as in the K-562 leukemia. Complex spheroids include a stromal component modeled by human endothelial cells (HUVEC) and fibroblasts modeled by human mesenchymal stem cells (MSCs). The concentration ranges selected for each drug and investigational agent were based upon clinically achievable concentrations if the clinical Cmax of the agent was known.
Compounds. The drugs and investigational agents used in this study are listed on Table 1. All of the agents used, including staurosporine (NSC755774) and gemcitabine (NSC613327), were obtained from the Developmental Therapeutics Program, NCI. FDA-approved anticancer drugs are available from the NCI at http://dtp.nci.nih.gov/branches/dscb/oncology_drugset_explanation.html. Drugs and investigational agents were >95% pure by proton nuclear magnetic resonance (NMR) and liquid chromatography/mass spectrometry (LC/MS). Stock solutions were prepared at 400x in DMSO, stored at -70 degrees C, and diluted in fresh medium prior to their use. The final concentration of DMSO in cell culture wells never exceeded 0.25% (v/v). The FDA-approved anticancer drug set is available from the Developmental Therapeutics Program at https://dtp.cancer.gov/organization/dscb/obtaining/available_plates.htm. All drugs and investigational agents were tested over a range starting from a high concentration at or near the clinical Cmax and decreasing in half-log increments. If the clinical Cmax for an agent had not been determined, the highest concentration tested was 10 microM.
Cell Lines. The patient-derived cancer cell (PDC) lines: 292921-168-R-J2-PDC, K24384-001-R-PDC, and 521955-158-R2-J5-PDC pancreatic carcinomas, 556581-035-R-J1 ovarian carcinoma, 324938-238-R-J1-PDC, 855422-203-R-J1-PDC and 883617-216-R-J1-PDC urothelial bladder carcinomas, 743489-274-T-PDC renal cell carcinoma, 138582-R-J1 Merkel cell tumor, K60290-347-R-J1 and K57222-313-R-J1-PDC glioblastomas, 653999-131-R-J2-PDC, LG0703-F948-PDC, and 349418-098-R-PDC non-small cell lung carcinomas, 885512-296-R-J2-PDC, 171881-019-R-J1-PDC breast carcinomas and 186277-243-T-J2-PDC and 233499-124-R-J2-PDC colon carcinomas were obtained from the NCI Patient-Derived Models Repository (PDMR, https://pdmr.cancer.gov). The established cell lines NCI/ADR-RES (RRID:CVCL_14520 and OVCAR-5 (RRID:CVCL_1628) ovarian carcinomas, 786-O (RRID:CVCL_1051) and A498 (RRID:CVCL_A498) renal cell carcinoma, NCI-H211 (ATCC, cat. CRL-5824; RRID:CVCL_1529), NCI-H196 (ATCC, cat. CRL-5823, RRID:CVCL_1509), SW 1271 (ATCC, cat. CRL-2177, RRID:CVCL_1716) and NCI-H1876 (ATCC, cat. CRL-5902, RRID:CVCL_1503) small cell lung carcinomas, MDA-MB-231 (RRID:CVCL_0062) and MDA-MB-468 (RRID:CVCL_0419)breast carcinomas (10-12). Pooled donor human umbilical vein endothelial cells (HUVEC, Lonza, cat. CC-2519) and human mesenchymal stem cells (hMSC, Lonza, cat. PT-2501) were purchased from Lonza (Walkersville, MD).
Cell Culture. All cells were maintained in an incubator at 37 degrees C and 5% CO2 with 95% humidity. The PDC lines were cultured according to standard operating procedures established by the NCI PDMR (https://pdmr.cancer.gov). Briefly all PDCs were thawed and cultured in Matrigel-coated flasks prepared with a working solution of 1X Ham's F-12 nutrient mix, without supplementation (Invitrogen, Waltham, MA, cat. 11765054), 100 U/mL penicillin-streptomycin (Invitrogen, cat. 15140122), and 2.5% Matrigel (Corning Inc., Corning, NY, cat. 354248) for the first three passages. […]
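Further: drug exposure lasted 7 days starting on day 3 after seeding.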
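Wherever viability, T/C is given: luminescence viability as percent of DMSO vehicle wells = 100%.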

In the case of `CC(C)CC(NC(=O)C(Cc1ccccc1)NC(=O)c1cnccn1)B(O)O` (stereo not drawn), the pIC50 was 9.27 and 9.21. In addition, the viability, T/C (compound 0.000316 µM) is 90.9% and 115%. In addition, the viability, T/C (compound 0.001 µM) is 2.15% and 1.03%. For the same compound, the viability, T/C (compound 0.00316 µM) was 0.11% and 0.13%. The viability, T/C (compound 0.01 µM) was 0.1% and 0.12%. For the same compound, the viability, T/C (compound 0.0316 µM) was 0.09% and 0.13%. The viability, T/C (compound 0.1 µM) was 0.14% and 0.2%.
For the compound `CC(C)CC(NC(=O)CNC(=O)c1cc(Cl)ccc1Cl)B1OC(=O)CC(CC(=O)O)(C(=O)O)O1` (stereo not drawn), the pIC50 is 8.81 and 8.73. Moreover, the viability, T/C (compound 0.000316 µM) is 105%. Moreover, the viability, T/C (compound 0.001 µM) is 76.8% and 109%. The viability, T/C (compound 0.00316 µM) is 6.4% and 3.59%. In addition, where the note is “compound 0.01 µM”, the viability, T/C is 1.38% and 0.62%. Further, for the setting “compound 0.0316 µM”, the viability, T/C is 0.11% and 0.19%. Moreover, the viability, T/C (compound 0.1 µM) is 0.17% and 0.19%.
For `CC1(C)CCC(CN2CCN(c3ccc(C(=O)NS(=O)(=O)c4ccc(NCC5CCOCC5)c([N+](=O)[O-])c4)c(Oc4cnc5[nH]ccc5c4)c3)CC2)=C(c2ccc(Cl)cc2)C1`, the pIC50 is 5.26 and 5.25. The viability, T/C (compound 0.0316 µM) was 102% and 97.3%. In addition, the viability, T/C (compound 0.1 µM) was 105% and 94.6%. Also, the viability, T/C (compound 0.316 µM) was 104% and 110%. Besides, the viability, T/C (compound 1 µM) was 103% and 107%. Besides, the viability, T/C (compound 3.16 µM) is 80.6% and 83.9%. Besides, the viability, T/C (compound 10 µM) is 17.9% and 15.2%.
For the compound `CC1COCCN1c1cc(-c2ccnn2C)c2ccnc(-c3ccn[nH]3)c2n1` (stereo not drawn), the pIC50 is 7.04 and 7.01. Further, the viability, T/C (compound 0.00316 µM) is 98.3% and 96.7%. Further, the viability, T/C (compound 0.01 µM) is 90.6% and 99.5%. Besides, the viability, T/C (compound 0.0316 µM) is 90.2% and 105%. In addition, the viability, T/C (compound 0.1 µM) is 46% and 48.9%. Where the note is “compound 0.316 µM”, the viability, T/C is 32.3% and 26%. Besides, the viability, T/C (compound 1 µM) is 25.3% and 22.9%.
Take `CCN(c1cc(-c2ccc(CN3CCOCC3)cc2)cc(C(=O)NCc2c(C)cc(C)[nH]c2=O)c1C)C1CCOCC1`: the pIC50 was less than 5.52. In addition, where the note is “compound 0.00949 µM”, the viability, T/C was 105% and 109%. The viability, T/C (compound 0.03 µM) is 95.1% and 101%. Besides, the viability, T/C (compound 0.0949 µM) was 94.6% and 97.5%. In addition, the viability, T/C (compound 0.3 µM) was 86.5% and 91.6%. Further, the viability, T/C (compound 0.949 µM) was 88% and 88.5%. Under “compound 3 µM”, the viability, T/C was 84.7% and 89%.
As for `CC[C@@]1(O)C(=O)OCc2c1cc1n(c2=O)Cc2cc3c(CN(C)C)c(O)ccc3nc2-1`, the pIC50 was 8.13 and 8.09. Further, the viability, T/C (compound 0.000316 µM) is 90.1% and 96.8%. In addition, for the setting “compound 0.001 µM”, the viability, T/C is 95.2% and 97.2%. Further, under “compound 0.00316 µM”, the viability, T/C was 89.8% and 94.5%. The viability, T/C (compound 0.01 µM) was 35.8% and 39.8%. The viability, T/C (compound 0.0316 µM) was 25.6% and 21.1%. Moreover, the viability, T/C (compound 0.1 µM) was 14.6% and 14.9%.
With `CCc1c2c(nc3ccc(O)cc13)-c1cc3c(c(=O)n1C2)COC(=O)[C@]3(O)CC`, the pIC50 is greater than 9.02. For the setting “compound 0.000949 µM”, the viability, T/C is 14.2% and 14.1%. Also, the viability, T/C (compound 0.003 µM) is 10.3% and 11.1%. In addition, the viability, T/C (compound 0.00949 µM) is 6.95% and 8.29%. For the same compound, the viability, T/C (compound 0.03 µM) was 5.21% and 4.8%. Further, for the setting “compound 0.0949 µM”, the viability, T/C was 3.58% and 2.82%. In addition, the viability, T/C (compound 0.3 µM) was 1.67% and 10.8%.
In the case of `COc1cc(C2c3cc4c(cc3C(OC3OC5COC(C)OC5C(O)C3O)C3COC(=O)C23)OCO4)cc(OC)c1O` (stereo not drawn), the pIC50 is 6.86 and 6.83. Also, under “compound 0.00949 µM”, the viability, T/C was 88.6% and 97.5%. Also, the viability, T/C (compound 0.03 µM) was 79.6% and 102%. Besides, the viability, T/C (compound 0.0949 µM) was 61% and 58.4%. Besides, the viability, T/C (compound 0.3 µM) is 28.3% and 31.1%. Under “compound 0.949 µM”, the viability, T/C is 13.5% and 15.1%. Moreover, for the setting “compound 3 µM”, the viability, T/C was 6.36% and 6.7%.
As to `COc1cc(Nc2ncc3c(n2)-c2ccc(Cl)cc2C(c2c(F)cccc2OC)=NC3)ccc1C(=O)O`, the pIC50 was less than 6.00. In addition, the viability, T/C (compound 0.00316 µM) is 95.3% and 91.3%. Further, the viability, T/C (compound 0.01 µM) was 96.3% and 104%. Besides, the viability, T/C (compound 0.0316 µM) is 80.6% and 79.7%. The viability, T/C (compound 0.1 µM) is 79.5% and 71.7%. Further, the viability, T/C (compound 0.316 µM) is 62.2% and 59.5%. The viability, T/C (compound 1 µM) was 63.8% and 64.5%.

Usually viability, T/C stands for the ratio of treated to control. As usually defined, the pIC50 is the negative decadic logarithm of the IC50, by convention in mol/L.
